{"source": "patent US11560365B2", "about": "“Non-fluorescent rhodamines” (THE UNIVERSITY OF TOKYO, priority 2018, dated 2023)", "key": {"[1]": {"assay": "Optical properties: relative fluorescence quantum yield with reference to Rhodamine B", "type": "physicochemical", "conditions": "for fluorescence quantum yield (Φfl): relative to Rhodamine B", "description": "The optical properties of the compound synthesized in the above Synthesis Examples were evaluated. The results are illustrated in FIG. 4.\n(a to c) of FIG. 4 illustrate chemical structures of tetramethylrhodamine (TMR) (a), 4-Cl TMR (b) and 4,5-diCl TMR (c), the fluorescence quantum yields (Φf1) in MeOH containing 0.1% TFA, absorption maximum (λabs) and emission maximum (λem). Φf1 is a relative fluorescence quantum yield determined with reference to Rhodamine B (Φf1=0.65) of EtOH.\n(d to f) of FIG. 4 illustrates absorption spectra and emission spectra of 1 μM TMR (d), 4-Cl TMR (e) and 4,5-diCl TMR (f) in MeOH containing 0.1% TFA and 0.1% DMSO.\n(a to c) of FIG. 6 illustrate chemical structures of 2-Cl TMR (a), 2-Me TMR (b) and 2-F TMR (c), the fluorescence quantum yields (Oni) in MeOH containing 0.1% TFA, absorption maximum (λabs) and emission maximum (λem). Φf1 is a relative fluorescence quantum yield determined with reference to Rhodamine B (Φf1=0.65) of EtOH.\n(d to f) of FIG. 6 illustrates the absorption spectra and the emission spectra of 1 μM 2-Cl TMR (a), 2-Me TMR (b) and 2-F TMR (c) in MeOH containing 0.1% TFA and 0.1% DMSO.\n(a) of FIG. 7 illustrates Φf1, λabs and λem of 2-Cl triMe rhodamine in MeOH containing 0.1% TFA. (b) of FIG. 7 illustrates the absorption spectrum and the emission spectrum of 1 μM 2-Cl triMe rhodamine in MeOH containing 0.1% TFA."}, "[2]": {"conditions": "in EtOH; cited from earlier work"}, "[3]": {"tested_on": "CYP3A", "conditions": "literature statement; cited from earlier work"}, "[4]": {"biological_target": "T1, CYP1A2 (Homo sapiens, UniProt P05177)", "T1 sequence (P05177 1-516)": "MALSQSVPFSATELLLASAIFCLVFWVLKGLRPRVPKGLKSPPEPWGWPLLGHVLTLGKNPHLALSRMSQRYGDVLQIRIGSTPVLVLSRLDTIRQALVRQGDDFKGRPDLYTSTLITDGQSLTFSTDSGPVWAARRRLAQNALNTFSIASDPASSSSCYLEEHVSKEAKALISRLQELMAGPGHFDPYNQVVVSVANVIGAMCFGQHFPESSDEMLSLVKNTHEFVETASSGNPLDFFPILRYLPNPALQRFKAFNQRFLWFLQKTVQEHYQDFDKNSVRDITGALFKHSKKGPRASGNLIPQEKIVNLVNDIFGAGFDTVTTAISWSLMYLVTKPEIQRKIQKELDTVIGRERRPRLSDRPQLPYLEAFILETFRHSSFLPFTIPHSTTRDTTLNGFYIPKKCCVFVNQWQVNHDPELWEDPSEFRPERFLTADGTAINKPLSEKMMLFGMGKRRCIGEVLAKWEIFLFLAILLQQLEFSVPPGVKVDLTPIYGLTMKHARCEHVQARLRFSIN", "conditions": "literature (Stresser et al. 2002); cited from earlier work"}, "[5]": {"biological_target": "CYP3A4 (Homo sapiens, UniProt P08684)", "sequence (P08684 whole entry)": "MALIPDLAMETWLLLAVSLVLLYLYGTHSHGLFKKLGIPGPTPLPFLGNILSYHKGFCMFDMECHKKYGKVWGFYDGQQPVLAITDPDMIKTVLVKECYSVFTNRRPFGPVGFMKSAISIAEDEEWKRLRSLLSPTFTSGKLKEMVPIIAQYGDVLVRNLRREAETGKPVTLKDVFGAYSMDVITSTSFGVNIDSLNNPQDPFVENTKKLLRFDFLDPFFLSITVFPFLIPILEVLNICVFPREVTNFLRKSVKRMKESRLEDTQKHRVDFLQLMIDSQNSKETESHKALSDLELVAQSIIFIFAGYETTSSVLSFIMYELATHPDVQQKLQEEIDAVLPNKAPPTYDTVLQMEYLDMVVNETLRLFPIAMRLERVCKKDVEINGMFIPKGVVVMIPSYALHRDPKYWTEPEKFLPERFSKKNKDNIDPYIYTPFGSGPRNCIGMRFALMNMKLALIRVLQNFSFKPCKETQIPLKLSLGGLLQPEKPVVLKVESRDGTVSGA", "assay": "Absorption/fluorescence spectrum changes on reaction with CYP3A4", "type": "biochemical", "conditions": "1 μM compound, CYP3A4 10 nM", "source_text": "Next, as a representative of the compounds illustrated in FIG. 15, absorption/fluorescence spectrum changes when Compound 29 (illustrated below) was reacted with CYP3A4 were shown (FIG. 16)."}, "[6]": {"tested_on": "CYP3A in human liver microsomes", "assay": "Time-dependent fluorescence change with human liver microsomes and NADPH producing system", "description": "The human liver microsomes and the NADPH producing system were pre-incubated with 0.1% DMSO or 10 μM ketoconazole for 30 minutes before addition of Compound 29, and the measurement was started immediately after addition of Compound 29."}, "[7]": {"tested_on": "CYP3A activity of HepaRG", "assay": "Fluorescence imaging of CYP3A activity in living HepaRG cells", "type": "cell-based", "conditions": "1 μM compound, 37° C. 30 minutes; control and rifampicin groups versus ketoconazole group", "description": "HepaRG (registered trademark) frozen vial 8M (HPR116-8M) purchased from KAC Co., Ltd. was thawed and inoculated according to the manufacturer's protocol, and cultured for 6 days in an 8-well chamber (Matsunami: SCC-038 collagen coat). Then, it was examined whether Compound 29 could detect the CYP3A activity of HepaRG.\nImaging was performed on three types of control group, inhibitor-added group, and derivative-added group.\nKetoconazole was used as an inhibitor. Rifampicin was used as an inducer of the CYP3A activity. […]\nHere, FIG. 18 illustrates a fluorescence image (control) of HepaRG obtained when HepaRG to which 0.1% DMSO was added for 3 days was pretreated with 0.1% DMSO for 30 minutes, then 1 μM of Compound 29 was added, and the mixture was incubated at 37° C. for 30 minutes, a fluorescence image (+ inhibitor) of HepaRG obtained when 0.1% DMSO was added for 3 days and pretreated with 1 μM ketoconazole for 30 minutes before imaging, then Compound 29 was added, and the mixture was incubated at 37° C. for 30 minutes, and a fluorescence image obtained when 20 μM rifampicin were added for 3 days and was pretreated with 0.1% DMSO for 30 minutes, then Compound 29 was added, and the mixture was further incubated at 37° C. for 30 minutes. […]"}, "[8]": {"assay": "Solvent viscosity dependence of the fluorescence quantum yield", "type": "physicochemical", "description": "Next, in order to examine whether the non-fluorescence of the newly developed non-fluorescent rhodamine was due to the production of the TICT state, solvent viscosity dependence of the fluorescence quantum yield was examined. Specifically, the absorption, fluorescence spectrum and fluorescence quantum yield were measured in three types of solvents including MeOH (εr=32.6, η=0.61 cP), ethylene glycol (εr=38.7, η=19.9 cP) and glycerol (εr=42.5, η=1412 cP). […] It was expected that if the formation of the TICT state was promoted by the steric hindrance due to the introduction of the substituent, while quenching was performed by the formation of the TICT state in MeOH, in a highly viscous solvent such as glycerol, a rate of intramolecular twist became slow, and the transition to the TICT state was suppressed, so that the fluorescence quantum yield would increase.\n(a) of FIG. 5 is Φf1 of 4-Cl TMR in glycerol, ethylene glycol and MeOH. Φf1 is a relative fluorescence quantum yield determined with reference to Rhodamine B (Φf1=0.65) of EtOH. (b and c) of FIG. 5 illustrate the absorption spectrum (b) and the emission spectrum (c) of 1 μM 4-Cl TMR in glycerol, ethylene glycol and MeOH."}}, "data": [{"smiles": "CN(C)c1ccc2c(-c3ccccc3C(=O)O)c3cc(Cl)c(=[N+](C)C)cc-3oc2c1", "note": "[2-Cl TMR, 2-ClTMR]", "values": [{"measurement": "fluorescence behaviour (in words)", "setting": "[1]; MeOH containing 0.1% TFA", "value": "exhibited non-fluorescence"}]}, {"smiles": "CCN(CC)c1ccc2c(-c3ccccc3C(=O)O)c3ccc(=[N+](CC)CC)cc-3oc2c1.[Cl-]", "note": "[Rhodamine B]", "values": [{"measurement": "fluorescence quantum yield (Φfl) of the reference", "setting": "[2]", "value": 0.65}]}, {"smiles": "Cc1ccccc1C1=C2C=CC(=[N+](C)C)C(Cl)=C2[Si](C)(C)c2cc(N(C)C)ccc21", "note": "[4-Cl TMSiR]", "values": [{"measurement": "fluorescence quantum yield", "setting": "[1]; Si-rhodamines, Example 5", "value": 1, "unit": "%"}]}, {"smiles": "O=c1cc(C(F)(F)F)c2ccc(OCc3ccccc3)cc2o1", "note": "[BFC, 7-benzyloxy-4-trifluoromethylcoumarin]", "values": [{"measurement": "metabolism by CYP3A", "setting": "[3]", "value": "metabolized by CYP3A"}, {"measurement": "metabolism by CYP1A2", "setting": "[4]", "value": "metabolized to some extent by CYP1A2"}]}, {"smiles": "c1ccc(COc2ccc3cccnc3c2)cc1", "note": "[BQ, 7-benzyloxyquinoline]", "values": [{"measurement": "metabolism by CYP3A", "setting": "[3]", "value": "metabolized by CYP3A"}, {"measurement": "metabolism by CYP1A2", "setting": "[4]", "value": "metabolized to some extent by CYP1A2"}]}, {"smiles": "CCCCCOCC/[N+](C)=c1/cc2oc3cc(N(C)C)ccc3c(-c3ccccc3C(=O)O)c-2cc1C", "note": "[Compound 29]", "values": [{"measurement": "change of absorption on reaction with CYP3A4", "setting": "[5]; pH 7.4", "value": "Shortening the absorption wavelength"}, {"measurement": "change of fluorescence intensity on reaction with CYP3A4", "setting": "[5]; pH 7.4, excitation 520 nm", "value": "significant increase in fluorescence intensity"}, {"measurement": "fluorescence change on reaction with human liver microsomes", "setting": "[6]; pH 7.4", "value": "showed the increase in fluorescence"}, {"measurement": "detection of CYP3A activity in living cells by fluorescence", "setting": "[7]", "value": "could detect the CYP3A activity even in living cells"}]}, {"smiles": "Cc1ccccc1-c1c2ccc(=[N+](C)C)cc-2oc2cc(N(C)C)ccc12", "note": "[reference compound]", "values": [{"measurement": "fluorescence quantum yield (Φfl)", "setting": "[1]; MeOH containing 0.1% TFA", "value": 0.399}]}, {"smiles": "Cc1cc2c(-c3ccccc3C(=O)O)c3ccc(N(C)C)cc3oc-2cc1=[N+](C)C", "note": "[2-Me TMR, 2-MeTMR]", "values": [{"measurement": "fluorescence quantum yield", "setting": "[1]; MeOH containing 0.1% TFA", "value": "about 1%"}]}, {"smiles": "Cc1ccccc1-c1c2ccc(=[N+](C)C)c(Cl)c-2oc2cc(N(C)C)ccc12", "note": "[4-Cl TMR, 4-ClTMR]", "values": [{"measurement": "fluorescence quantum yield (Φfl)", "setting": "[1]; MeOH containing 0.1% TFA", "value": 0.003}, {"measurement": "fluorescence quantum yield (Φfl)", "setting": "[8]; MeOH (η=0.61 cP)", "value": 0.003}, {"measurement": "fluorescence quantum yield (Φfl)", "setting": "[8]; ethylene glycol (η=19.9 cP)", "value": 0.01}, {"measurement": "fluorescence quantum yield (Φfl)", "setting": "[8]; glycerol (η=1412 cP)", "value": 0.09}]}, {"smiles": "C/N=c1\\cc2oc3cc(N(C)C)ccc3c(-c3ccccc3C(=O)O)c-2cc1Cl", "note": "[2-Cl triMe rhodamine]", "values": [{"measurement": "fluorescence quantum yield", "setting": "[1]; MeOH containing 0.1% TFA", "value": 15, "unit": "%"}]}, {"smiles": "Cc1ccccc1-c1c2ccc(=[N+](C)C)c(Cl)c-2oc2c(Cl)c(N(C)C)ccc12", "note": "[4,5-diCl TMR, 4,5-diClTMR]", "values": [{"measurement": "fluorescence quantum yield (Φfl)", "setting": "[1]; MeOH containing 0.1% TFA", "value": 0.001}]}, {"smiles": "CC(=O)N1CCN(c2ccc(OCC3COC(Cn4ccnc4)(c4ccc(Cl)cc4Cl)O3)cc2)CC1", "note": "(stereo not shown) [ketoconazole, reference compound]", "values": [{"measurement": "effect of inhibitor on the fluorescence increase of Compound 29 in human liver microsomes", "setting": "[6]; 10 μM ketoconazole pre-incubated 30 minutes", "value": "suppressed"}]}, {"smiles": "COc1cccc(OC)c1C1=C2C=CC(=[N+](C)C)C(Cl)=C2[Si](C)(C)c2c1ccc(N(C)C)c2Cl", "note": "[4,5-diCl TMSiR]", "values": [{"measurement": "fluorescence quantum yield", "setting": "[1]; Si-rhodamines, Example 5", "value": "≤ 0.1", "unit": "%"}]}, {"smiles": "CN(C)c1ccc2c(-c3ccccc3C(=O)O)c3cc(F)c(=[N+](C)C)cc-3oc2c1", "note": "[2-F TMR, 2-FTMR]", "values": [{"measurement": "fluorescence quantum yield", "setting": "[1]; MeOH containing 0.1% TFA", "value": "about 10%"}]}]}
